{
  "source": "patent US6706663B2",
  "about": "“Herbicidal 3-heterocyclic substituted benzisothiazole and benzisoxazole compounds” (Wyeth, priority 2000, dated 2004)",
  "key": {"[1]": {"system": "ABUTH (Abutilon theophrasti)", "experiment": "Postemergence herbicidal evaluation", "type": "in vivo, Medic.", "conditions": "postemergence", "outline": "(§1)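 Seedlings grown for about two weeks were sprayed postemergence and then kept under standard greenhouse care. Injury was rated visually 4–5 weeks after treatment on a 0–9 scale against untreated controls, and ratings from repeat tests were averaged.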"}, "GALAP (Galium aparine)": {"system": "GALAP (Galium aparine)", "experiment": "Postemergence herbicidal evaluation", "type": "in vivo", "conditions": "postemergence", "outline": "as §1"}, "[2]": {"system": "IPOHE (Ipomoea hederacea)", "experiment": "Postemergence herbicidal evaluation", "type": "in vivo, (L.) Jacq.", "conditions": "postemergence", "outline": "as §1"}, "[3]": {"system": "ECHCG (Echinochloa crus-galli)", "experiment": "Postemergence herbicidal evaluation", "type": "in vivo, (L.) Beau", "conditions": "postemergence", "outline": "as §1"}, "SETVI (Setaria viridis) [4]": {"system": "SETVI (Setaria viridis)", "experiment": "Postemergence herbicidal evaluation", "type": "in vivo, (L.) Beau", "conditions": "postemergence", "outline": "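Seedlings grown about two weeks were sprayed with compound in 50/50 acetone/water containing 0.5% TWEEN 20, at about 0.0040 to 1.000 kg/ha via nozzle at 40 psi. Plants were kept under greenhouse conditions and visually rated on a 0-9 scale versus control four to five weeks after treatment; replicate tests averaged.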"}, "[5]": {"system": "GLXMAW (Soybean, Williams)", "experiment": "Postemergence herbicidal evaluation", "type": "in vivo, Glycine max, (L.) Merr. cv Williams", "conditions": "postemergence", "outline": "as §1"}, "ORYSAT (Rice, Tebonnet) [6]": {"system": "ORYSAT (Rice, Tebonnet)", "experiment": "Postemergence herbicidal evaluation", "type": "in vivo, Oryza sativa, (L.) Tebonnet", "conditions": "postemergence", "outline": "as §1"}, "ZEAMX (Corn, Field)": {"system": "ZEAMX (Corn, Field)", "experiment": "Postemergence herbicidal evaluation", "type": "in vivo, Zea mays, L.", "conditions": "postemergence", "outline": "as §1"}, "[7]": {"system": "AMBEL (Ambrosia artemisifolia)", "experiment": "Preemergence herbicidal evaluation", "type": "in vivo, L.", "conditions": "rated 4-5 weeks after treatment", "outline": "(§2)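 Seeds mixed with potting soil were planted atop about one inch of soil, then sprayed with test compound in aqueous acetone. Cups were kept in the greenhouse and rated visually 4–5 weeks after treatment on a 0–9 scale against untreated control.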"}, "[8]": {"system": "CASOB (Cassia obtusifolia)", "experiment": "Preemergence herbicidal evaluation", "type": "in vivo, L.", "conditions": "rated 4-5 weeks after treatment", "outline": "as §2"}, "[9]": {"system": "CHEAL (Chenopodium album)", "experiment": "Preemergence herbicidal evaluation", "type": "in vivo, L.", "conditions": "rated 4-5 weeks after treatment", "outline": "as §2"}, "[10]": {"system": "IPOHE (Ipomoea hederacea)", "experiment": "Preemergence herbicidal evaluation", "type": "in vivo, (L.) Jacq.", "conditions": "rated 4-5 weeks after treatment"}, "[11]": {"system": "ECHCG (Echinochloa crus-galli)", "experiment": "Preemergence herbicidal evaluation", "type": "in vivo, (L.) Beau", "conditions": "rated 4-5 weeks after treatment", "outline": "as §2"}, "SETVI (Setaria viridis) [12]": {"system": "SETVI (Setaria viridis)", "experiment": "Preemergence herbicidal evaluation", "type": "in vivo, (L.) Beau", "conditions": "rated 4-5 weeks after treatment", "outline": "as §2"}, "ORYSAT (Rice, Tebonnet) [13]": {"system": "ORYSAT (Rice, Tebonnet)", "experiment": "Preemergence herbicidal evaluation", "type": "in vivo, Oryza sativa, (L.) Tebonnet", "conditions": "rated 4-5 weeks after treatment"}, "[14]": {"system": "ECHORC (Echinochloa oryzoides)", "experiment": "Flooded paddy, preemergence weed control", "type": "in vivo, Echinochloa oryzoides (Ard.) Fritsch.", "conditions": "rated 3-4 weeks after treatment, 0-9 rating scale", "outline": "(§3)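 Ratings of 0-9 reflect visual comparison with a control for stand, vigor, deformity, size, chlorosis and overall look. Propagules were placed in shallow silt loam (top 0.5 cm) under a continuous 1.5–3 cm flood and grown in the greenhouse.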"}, "CYPIR (Cyperus iria)": {"system": "CYPIR (Cyperus iria)", "experiment": "Flooded paddy, preemergence weed control", "type": "in vivo", "conditions": "rated 3-4 weeks after treatment, 0-9 rating scale", "outline": "as §3"}, "[15]": {"system": "MOOVA (Monochoria vaginalis)", "experiment": "Flooded paddy, preemergence weed control", "type": "in vivo, Presl.", "conditions": "rated 3-4 weeks after treatment, 0-9 rating scale", "outline": "as §3"}, "[16]": {"system": "SAGPY (Sagittaria pygmaea)", "experiment": "Flooded paddy, preemergence weed control", "type": "in vivo, L.", "conditions": "rated 3-4 weeks after treatment, 0-9 rating scale", "outline": "as §3"}, "ORYSAT (Rice, Tebonnet) [17]": {"system": "ORYSAT (Rice, Tebonnet)", "experiment": "Flooded paddy, post-transplant rice tolerance", "type": "in vivo, Oryza sativa, (L.) Tebonnet", "conditions": "flooded paddy, post-transplant rice, rated 3-4 weeks after treatment, 0-9 rating scale", "outline": "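Two ten-day-old seedlings were transplanted into silt loam, flooded and held at 1.5 to 3 cm water above the soil before herbicide treatment. Pots stayed in the greenhouse at that water level. Injury was scored visually on a 0-9 scale versus untreated control.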"}},
  "data": [
    {"smiles": "COCC1COC(c2nsc3ccc(-n4c(=O)cc(C(F)(F)F)n(C)c4=O)cc23)O1", "note": "(stereo not shown) [Compound 64, 3-[3-[4-(methoxymethyl)-1,3-dioxolan-2-yl]-1,2-benzisothiazol-5-yl]-1-methyl-6-(trifluoromethyl)uracil]", "values": [
      {"measurement": "ABUTH herbicidal rating", "setting": "[1]; rate 0.0320 kg/ha", "value": 9.0},
      {"measurement": "ABUTH herbicidal rating", "setting": "[1]; rate 0.0620 kg/ha", "value": 9.0},
      {"measurement": "GALAP herbicidal rating", "setting": "GALAP (Galium aparine); rate 0.0320 kg/ha", "value": 9.0},
      {"measurement": "GALAP herbicidal rating", "setting": "GALAP (Galium aparine); rate 0.0620 kg/ha", "value": 9.0},
      {"measurement": "IPOHE herbicidal rating", "setting": "[2]; rate 0.0320 kg/ha", "value": 9.0},
      {"measurement": "IPOHE herbicidal rating", "setting": "[2]; rate 0.0620 kg/ha", "value": 9.0},
      {"measurement": "ECHCG herbicidal rating", "setting": "[3]; rate 0.0320 kg/ha", "value": 3.0},
      {"measurement": "ECHCG herbicidal rating", "setting": "[3]; rate 0.0620 kg/ha", "value": 5.0},
      {"measurement": "SETVI herbicidal rating", "setting": "SETVI (Setaria viridis) [4]; rate 0.0320 kg/ha", "value": 6.0},
      {"measurement": "SETVI herbicidal rating", "setting": "SETVI (Setaria viridis) [4]; rate 0.0620 kg/ha", "value": 7.0},
      {"measurement": "GLXMAW herbicidal rating", "setting": "[5]; rate 0.0320 kg/ha", "value": 7.0},
      {"measurement": "GLXMAW herbicidal rating", "setting": "[5]; rate 0.0620 kg/ha", "value": 8.5},
      {"measurement": "ORYSAT herbicidal rating", "setting": "ORYSAT (Rice, Tebonnet) [6]; rate 0.0320 kg/ha", "value": 5.0},
      {"measurement": "ORYSAT herbicidal rating", "setting": "ORYSAT (Rice, Tebonnet) [6]; rate 0.0620 kg/ha", "value": 5.5},
      {"measurement": "ZEAMX herbicidal rating", "setting": "ZEAMX (Corn, Field); rate 0.0320 kg/ha", "value": 5.5},
      {"measurement": "ZEAMX herbicidal rating", "setting": "ZEAMX (Corn, Field); rate 0.0620 kg/ha", "value": 5.5},
      {"measurement": "Preemergence herbicidal rating AMBEL", "setting": "[7]; Rate 0.0620 kg/ha", "value": 9.0},
      {"measurement": "Preemergence herbicidal rating AMBEL", "setting": "[7]; Rate 0.1250 kg/ha", "value": 9.0},
      {"measurement": "Preemergence herbicidal rating AMBEL", "setting": "[7]; Rate 0.2500 kg/ha", "value": 9.0},
      {"measurement": "Preemergence herbicidal rating CASOB", "setting": "[8]; Rate 0.0620 kg/ha", "value": 7.5},
      {"measurement": "Preemergence herbicidal rating CASOB", "setting": "[8]; Rate 0.1250 kg/ha", "value": 9.0},
      {"measurement": "Preemergence herbicidal rating CASOB", "setting": "[8]; Rate 0.2500 kg/ha", "value": 9.0},
      {"measurement": "Preemergence herbicidal rating CHEAL", "setting": "[9]; Rate 0.0620 kg/ha", "value": 9.0},
      {"measurement": "Preemergence herbicidal rating CHEAL", "setting": "[9]; Rate 0.1250 kg/ha", "value": 9.0},
      {"measurement": "Preemergence herbicidal rating CHEAL", "setting": "[9]; Rate 0.2500 kg/ha", "value": 9.0},
      {"measurement": "Preemergence herbicidal rating IPOHE", "setting": "[10]; Rate 0.0620 kg/ha", "value": 7.0},
      {"measurement": "Preemergence herbicidal rating IPOHE", "setting": "[10]; Rate 0.1250 kg/ha", "value": 9.0},
      {"measurement": "Preemergence herbicidal rating IPOHE", "setting": "[10]; Rate 0.2500 kg/ha", "value": 9.0},
      {"measurement": "Preemergence herbicidal rating ECHCG", "setting": "[11]; Rate 0.0620 kg/ha", "value": 9.0},
      {"measurement": "Preemergence herbicidal rating ECHCG", "setting": "[11]; Rate 0.1250 kg/ha", "value": 9.0},
      {"measurement": "Preemergence herbicidal rating ECHCG", "setting": "[11]; Rate 0.2500 kg/ha", "value": 9.0},
      {"measurement": "Preemergence herbicidal rating SETVI", "setting": "SETVI (Setaria viridis) [12]; Rate 0.0620 kg/ha", "value": 9.0},
      {"measurement": "Preemergence herbicidal rating SETVI", "setting": "SETVI (Setaria viridis) [12]; Rate 0.1250 kg/ha", "value": 9.0},
      {"measurement": "Preemergence herbicidal rating SETVI", "setting": "SETVI (Setaria viridis) [12]; Rate 0.2500 kg/ha", "value": 9.0},
      {"measurement": "Preemergence herbicidal rating ORYSAT", "setting": "ORYSAT (Rice, Tebonnet) [13]; Rate 0.0620 kg/ha", "value": 8.5},
      {"measurement": "Preemergence herbicidal rating ORYSAT", "setting": "ORYSAT (Rice, Tebonnet) [13]; Rate 0.1250 kg/ha", "value": 9.0},
      {"measurement": "Preemergence herbicidal rating ORYSAT", "setting": "ORYSAT (Rice, Tebonnet) [13]; Rate 0.2500 kg/ha", "value": 9.0},
      {"measurement": "herbicidal rating, ECHORC", "setting": "[14]; rate 0.0080 kg/ha", "value": 1.5},
      {"measurement": "herbicidal rating, ECHORC", "setting": "[14]; rate 0.0320 kg/ha", "value": 9.0},
      {"measurement": "herbicidal rating, ECHORC", "setting": "[14]; rate 0.1250 kg/ha", "value": 9.0},
      {"measurement": "herbicidal rating, CYPIR", "setting": "CYPIR (Cyperus iria); rate 0.0080 kg/ha", "value": 1.5},
      {"measurement": "herbicidal rating, CYPIR", "setting": "CYPIR (Cyperus iria); rate 0.0320 kg/ha", "value": 6.0},
      {"measurement": "herbicidal rating, CYPIR", "setting": "CYPIR (Cyperus iria); rate 0.1250 kg/ha", "value": 9.0},
      {"measurement": "herbicidal rating, MOOVA", "setting": "[15]; rate 0.0080 kg/ha", "value": 0.0},
      {"measurement": "herbicidal rating, MOOVA", "setting": "[15]; rate 0.0320 kg/ha", "value": 9.0},
      {"measurement": "herbicidal rating, MOOVA", "setting": "[15]; rate 0.1250 kg/ha", "value": 9.0},
      {"measurement": "herbicidal rating, SAGPY", "setting": "[16]; rate 0.0080 kg/ha", "value": 0.0},
      {"measurement": "herbicidal rating, SAGPY", "setting": "[16]; rate 0.0320 kg/ha", "value": 3.0},
      {"measurement": "herbicidal rating, SAGPY", "setting": "[16]; rate 0.1250 kg/ha", "value": 9.0},
      {"measurement": "herbicidal rating, ORYSAT (rice tolerance)", "setting": "ORYSAT (Rice, Tebonnet) [17]; rate 0.0080 kg/ha", "value": 5.5},
      {"measurement": "herbicidal rating, ORYSAT (rice tolerance)", "setting": "ORYSAT (Rice, Tebonnet) [17]; rate 0.0320 kg/ha", "value": 8.0},
      {"measurement": "herbicidal rating, ORYSAT (rice tolerance)", "setting": "ORYSAT (Rice, Tebonnet) [17]; rate 0.1250 kg/ha", "value": 9.0}
    ]}
  ]
}
